This test has as its system SMN. Put plainly: Western blotting of abnormal protein from pre-mRNA, SMN. It is filed as cell-based, human. Particulars: HeLa cells, 10 nM and 100 nM, 24 hours; untreated: only a 35 kDa band (FIG. 4). The source says:
Consequently the protein may serves as a protein marker to monitor the action of (8E,12E,14E)-7-((4-cycloheptylpiperazin-1-yl)carbonyl)oxy-3,6,16,21-tetrahydroxy-6,10,12,16,20-pentamethyl-18,19-epoxytricosa-8,12,14-trien-11-olide. Whether the pre-mRNA-dependent abnormal protein practically emerged upon the treatment of (8E,12E,14E)-7-((4-cycloheptylpiperazin-1-yl)carbonyl)oxy-3,6,16,21-tetrahydroxy-6,10,12,16,20-pentamethyl-18,19-epoxytricosa-8,12,14-trien-11-olide was examined by using cancer cells (HaLa). […] Based on these findings, the protein generated from pre-mRNA can serve as the marker as well.
About 3×10^5 cells of HeLa cells were first seeded in a 24-well culture plate (bottom area: 2 cm^2), and 18 hours later, the compound was added thereto at the indicated concentration, followed by additional 24-hour culturing. The cells were washed once with PBS(−), and then were lysed by treating with 0.2 ml of M-PER reagent (PIERCE) for 30 minutes. The collected lysate was filtered with a 0.45 μm filter to remove insoluble matters and then combined with an equal amount of 2×SDS-PAGE sample solution. The mixture was heated to be denatured at 95° C. for five minutes to yield a sample to be analyzed.
The analysis sample (15 μl each) was separated with 5-20% SDS-PAGE and transferred onto a PVDF membrane (Hybond-P: GE-Amersham). […]
In general terms: Immunoblotting shows a protein as a band on a membrane.

Regarding `CCC(O)C(C)C1OC1CC(C)(O)/C=C/C=C(\C)C1OC(=O)CC(O)CCC(C)(O)C(OC(=O)N2CCN(C3CCCCCC3)CC2)/C=C/C1C` (stereo not shown) [E7107, (8E,12E,14E)-7-((4-cycloheptylpiperazin-1-yl)carbonyl)oxy-3,6,16,21-tetrahydroxy-6,10,12,16,20-pentamethyl-18,19-epoxytricosa-8,12,14-trien-11-olide], the “SMN bands in Western blot” value was “multiple bands with a molecular weight of less than 35 kDa were confirmed”.

Values taken from patent publication US20100021918A1, “METHOD FOR ASSAYING ACTION OF ANTITUMOR AGENT USING SPLICING DEFECTS AS INDEX” (Eisai R&D Management Co., Ltd., priority 2007, published 2010).
